Tested on: human stratum corneum
Test: Corneosurfametry test
Excerpt: Another method to measure the skin irritancy potential is corneosurfametry (CSM) test, a noninvasive quantitative test that measures the interaction between surfactants and human stratum corneum. ([…] et al., Dermatology 189: 152-156 (1994)). Corneosurfametry involves removing a few layers of skin using cyanoacrylate skin surface strippings, short contact time with surfactants followed by staining the samples with fuchian dyes. A […] barrier allows greater penetration of the stain, therefore giving a more intense color, which is measured using colorimetrically with L*a*b* color space. This method is predictive of both protein and lipid damage in the skin. CIM (Color Indicator of Mildness) values are obtained from a corneosurfametry test. In a comparative study, the higher the CIM value, the milder the surfactant formulation. The test surfactant solution can be a solution with 3% active surfactant, or a 10% dilution of a surfactant formulation/product which has a total surfactant concentration of about 10%-25%. Corneosurfametry involves removing a few layers of human skin from the volar forearm of healthy adults using skin surface strippings. The skin was collected with D-Squame tapes (for tests with neutral pH formulas) and with Book tape (for tests with high pH formulas). […] Once the tapes are dry, they were analyzed with spectrophotometer. […]

SMILES: CCCCCCCCCCCCOS(=O)(=O)[O-].[Na+] [1% SDS, SDS]
- CIM: 36.84
